Source: US20240190950A1, “METHOD OF TREATING DISEASES USING GREMLIN1 ANTAGONISTS” (SHANGHAI JIAO TONG UNIVERSITY, priority 2021, published 2024)

Experiments:
Assay type in all cases: cell-based, human
[1] = test system: FGFR1/MEK/ERK signaling pathway; assay: FGFR1/MEK/ERK phosphorylation in PCa cell lines (immunoblotting)
Experimental: In order to test whether Gremlin1 promoted the FGFR-MAPK signaling, we first performed analysis of the expression levels of the four FGFRs in CRPC patients. […] We treated LNCaP and PC3 with GREM1 in different concentrations (1 ng/ml, 10 ng/ml, 100 ng/ml) and examined phosphorylation levels of FGFR1, MEK and ERK.
(§1) MAPK signaling can be activated through many membrane receptors besides FGFR. To test whether the activation of MAPK pathway by GREM1 was via FGFR, we constructed a FGFR1 knockout LNCaP subline by the CRISPR/Cas9 method. […] To further test whether the tumor promoting effect of GREM1 was through FGFR, we utilized small molecule inhibitors of FGFR or EGFR.
14E3 was tested to target GREM1 in human PCa.

[2] = test system: LNCaP cells; assay: GREM1-promoted PCa cell proliferation and sphere formation with FGFR1/MEK inhibitors or BMP4
From the text: as §1

[3] = test system: GREM1 expression in LNCaP cells; assay: Regulation of GREM1 expression by AR agonist/antagonist in LNCaP cells (q-PCR, immunoblot, luciferase reporter); conditions: R1881 1 nM, enzalutamide 10 μg/ml
From the text: AR plays a central role in PCa. To assess the relationship between Gremlin1 and AR signaling, we performed further IHC staining for Gremlin1 and PSA, a classic downstream target of AR, on sections of CRPC specimens. […] In addition, we detected a significant increase of GREM1 in a castration resistant LNCaP cell line (termed as LNCaP R), which was derived from xenograft LNCaP tumors implanted in castrated mice, compared to a control LNCaP cell line generated from xenografts in intact mice (FIG. 2A). We then asked whether the expression of GREM1 was regulated by AR signaling. We utilized an AR expressing lentivirus or the CRISPR/Cas9 method to achieve AR upregulation (FIG. 2B) or knockout in the LNCaP PCa cell line (FIG. 2D). […] This conclusion was supported by AR agonist R1881 and antagonist Enzalutamide treatment experiments (FIG. 1D, 1E).
Additionally, we carried out a luciferase reporter assay.

| Compound | activation of MAPK/FGFR1 signaling axis by GREM1 in presence of inhibitor ([1]; inhibitor 1 μM, Gremlin1 100 ng/ml, PC3 and LNCaP-resistance cells) | proliferation promoting role of GREM1 [2] | sphere-formation promoting role of GREM1 [2] | GREM1 mRNA transcription [3] | GREM1 promoter driven luciferase activity [3] | Gremlin1 protein level [3] | time of highest MAPK signaling activation ([1]; FGF 20 ng/ml, PC3 and LNCaP cells, quickly diminished afterwards) [min] |
| --- | --- | --- | --- | --- | --- | --- | --- |
| CCN1CCN(c2ccc(Nc3cc(N(C)C(=O)Nc4c(Cl)c(OC)cc(OC)c4Cl)ncn3)cc2)CC1 [BGJ398, reference compound] | attenuated | significantly compromised | significantly compromised |  |  |  |  |
| C[C@]1(O)CC[C@H]2[C@@H]3CCC4=CC(=O)CCC4=C3C=C[C@@]21C [R1881] |  |  |  | downregulated | greatly inhibited | downregulated |  |
| CNC(=O)c1ccc(N2C(=S)N(c3ccc(C#N)c(C(F)(F)F)c3)C(=O)C2(C)C)cc1F [enzalutamide] |  |  |  | significantly increased | enhanced | significantly increased |  |
| FGF1: known FGFR1 ligand used as a positive control |  |  |  |  |  |  | 10 |
